One assay relates to P. multocida 46572. Briefly: In vivo mouse lung infection challenge model (murine efficacy). Further details: species or system CD-1 female mice. The conditions noted are these: 20 mg/kg subcutaneous, P. multocida challenge; harmonized against the comparative vehicle survival rate. Here is the method: The challenge organism was P. multocida 46572. Target challenge concentration was 5×10^2 CFU/mouse. Isolated colonies from overnight growth (37° C. with 5% CO2) on trypticase soy agar (TSA II) blood plates were transferred to room temperature Brain Heart Infusion Broth (BHIB). The broth culture was incubated 3.5-4 hours to approximately mid-log phase of growth, as measured by forward light scatter at 600 nm (OD600, 0.200). The culture was centrifuged to collect the bacterial pellet. The pellet was re-suspended in BHIB and adjusted to provide an approximate concentration of 2.7 log^10 colony forming units (CFU) in 0.04 mL at the highest concentration. The challenge inoculum concentration was confirmed by serial dilutions of the inoculum for CFU enumeration. On Day −5, CD-1 female mice were received. Mice were given standard rodent diet and water ad libitum. On Day 0, bacterial inoculum (0.04 mL) was administered to each mouse (n=36) intranasally. Compounds of the invention were dosed at 20 mg/kg (0.1 mL) in a buffered (˜pH 5.4) propylene glycol, monothioglycerol and water solution by subcutaneous injection. Animals were observed from Days 1-10. The study was terminated on Day 10. In addition, some treatment groups were sampled at 6, 24, and 48 hours post bacterial challenge for RNA sequence analysis of lung tissue.
The murine efficacy model (P. multocida challenge) was optimized, and the treatment group size was powered to be able to observe statistically significant improvement of survival to expected ranges for immunomodulatory compounds. The experimental design was a randomized complete block design. Mice were individually identified and treatment groups comingled within a cage, with every treatment group equally represented across cages. Mortality was the primary variable. Mortality data was analyzed using a generalized mixed model with fixed effect of treatment and random effect of block. Survival time was also analyzed using the SAS PHREG (survival analysis) procedure to examine whether there were significant differences between treatment groups and the control group. Numerous compounds of the invention and M9 (positive control) were tested in this model at a dose of 20 mg/kg. Typical percent survival for no treatment control is in the range of 0-20% based on study to study variation in challenge inoculum and rate of infection. […] Mouse survival for M9 was about 90-100%, further supporting its antibacterial properties against the bacterial strain (Table 3). Survival values presented are harmonized against the comparative vehicle survival rate.

The test system of the next assay is IL-1β. Briefly: LPS-stimulated whole bovine blood assay, MSD cytokine detection. The format is cell-based. The following applies: overstimulation of IL-1β, LPS-stimulated bovine whole blood.
The next assay deals with IL-6. Described as above. The conditions noted are these: Bos taurus, read-out: IL-6 (IC50 μM). The format is cell-based. The source says:
In order to correlate RNA sequencing data to cytokine changes the whole blood assay was utilized. […] The enhancement result represents an overall stimulation of cytokine levels due to cellular stress or potential toxicity with increasing concentrations of the compound, representing a typical bell shape response curve for immunomodulatory activity.

In another assay the test system is TNF-α. The assay is described as above. Format: cell-based. The conditions noted are these: Bos taurus, read-out: TNF-α (IC50 μM).
The subject of assay [1] is BRD pathogens, M. haemolytica and P. multocida. Description: MIC screening panel of BRD pathogens (antibacterial / non-antibacterial).
The mark [2] stands for this setting: LPS-stimulated bovine whole blood.
[3] abbreviates: read-out: antibacterial / non-antibacterial (MIC for the BRD pathogens).

This is an account of results in US12295936B2, “Immunomodulating urea azalides” (Zoetis Services LLC, priority 2020, dated 2025).

Where two headings read alike, the source gives them in different places.

Take `CC[C@H]1OC(=O)[C@H](C)[C@@H](O[C@H]2C[C@@](C)(OC)[C@@H](O)[C@H](C)O2)[C@H](C)[C@@H](O[C@@H]2O[C@H](C)C[C@H](N(C)C(=O)N(C)c3ccccc3)[C@H]2O)[C@](C)(O)C[C@@H](C)CN(C)[C@H](C)[C@@H](O)[C@]1(C)O` [Example B-5, 1-((2S,3R,4S,6R)-2-(((2R,3S,4R,5R,8R,10R,11R,12S,13S,14R)-2-ethyl-3,4,10-trihydroxy-13-(((2R,4R,5S,6S)-5-hydroxy-4-methoxy-4,6-dimethyltetrahydro-2H-pyran-2-yl)oxy)-3,5,6,8,10,12,14-heptamethyl-15-oxo-1-oxa-6-azacyclopentadecan-11-yl)oxy)-3-hydroxy-6-methyltetrahydro-2H-pyran-4-yl)-1,3-dimethyl-3-phenylurea]: the “Mouse Murine Percent Survival” value in the assay with P. multocida 46572 is recorded as less than 1%.
In the case of `CCCNC[C@]1(O)[C@H](C)O[C@@H](O[C@H]2[C@H](C)[C@@H](O[C@@H]3O[C@H](C)C[C@H](N(Cc4nccs4)C(=O)N(C)c4ccccc4)[C@H]3O)[C@](C)(O)C[C@@H](C)CN[C@H](C)[C@@H](O)[C@](C)(O)[C@@H](CC)OC(=O)[C@@H]2C)C[C@@]1(C)OC` [Example H-64, 1-((2S,3R,4S,6R)-2-(((2R,3S,4R,5R,8R,10R,11R,12S,13S,14R)-2-ethyl-3,4,10-trihydroxy-13-(((2R,4R,5S,6S)-5-hydroxy-4-methoxy-4,6-dimethyl-5-((propylamino)methyl)tetrahydro-2H-pyran-2-yl)oxy)-3,5,8,10,12,14-hexamethyl-15-oxo-1-oxa-6-azacyclopentadecan-11-yl)oxy)-3-hydroxy-6-methyltetrahydro-2H-pyran-4-yl)-3-methyl-3-phenyl-1-(thiazol-2-ylmethyl)urea], the “IL-1β OS of LPS” value with IL-1β came out at 16 µM. For the same compound, the IC50 in the assay on IL-6 (setting [2]) and in the assay with TNF-α (setting [2]) was 28 µM in each case. In assay [1] (setting [3]), the MIC is more than 64 µg/mL.
Regarding `CC[C@H]1OC(=O)[C@H](C)[C@@H](O[C@H]2C[C@@](C)(OC)[C@](O)(CCl)[C@H](C)O2)[C@H](C)[C@@H](O[C@@H]2O[C@H](C)C[C@H](N(C)C(=O)N(C)c3ccccc3)[C@H]2O)[C@](C)(O)C[C@@H](C)CN[C@H](C)[C@@H](O)[C@]1(C)O` [Example E-2, 1-((2S,3R,4S,6R)-2-(((2R,3S,4R,5R,8R,10R,11R,12S,13S,14R)-13-(((2R,4R,5S,6S)-5-(chloromethyl)-5-hydroxy-4-methoxy-4,6-dimethyltetrahydro-2H-pyran-2-yl)oxy)-2-ethyl-3,4,10-trihydroxy-3,5,8,10,12,14-hexamethyl-15-oxo-1-oxa-6-azacyclopentadecan-11-yl)oxy)-3-hydroxy-6-methyltetrahydro-2H-pyran-4-yl)-1,3-dimethyl-3-phenylurea], the “IL-1β OS of LPS” value in the assay on IL-1β stood at 40 µM. Also, the results for the IC50 in the assay on IL-6 (setting [2]) and with TNF-α (setting [2]) were 35 µM and 40 µM, respectively. For the same compound, in assay [1] (setting [3]), the MIC is more than 64 µg/mL.
As to `CC[C@H]1OC(=O)[C@H](C)[C@@H](O[C@H]2C[C@@](C)(OC)[C@](O)(CNCC3CCN(C(C)=O)CC3)[C@H](C)O2)[C@H](C)[C@@H](O[C@@H]2O[C@H](C)C[C@H](N(C)C(=O)N(C)c3ccccc3)[C@H]2O)[C@](C)(O)C[C@@H](C)CN[C@H](C)[C@@H](O)[C@]1(C)O` [Example H-31, 1-((2S,3R,4S,6R)-2-(((2R,3S,4R,5R,8R,10R,11R,12S,13S,14R)-13-(((2R,4R,5S,6S)-5-((((1-acetylpiperidin-4-yl)methyl)amino)methyl)-5-hydroxy-4-methoxy-4,6-dimethyltetrahydro-2H-pyran-2-yl)oxy)-2-ethyl-3,4,10-trihydroxy-3,5,8,10,12,14-hexamethyl-15-oxo-1-oxa-6-azacyclopentadecan-11-yl)oxy)-3-hydroxy-6-methyltetrahydro-2H-pyran-4-yl)-1,3-dimethyl-3-phenylurea], the “IL-1β OS of LPS” value in the assay with IL-1β came to 81 µM. In addition, the IC50 with IL-6 (setting [2]) and with TNF-α (setting [2]) was 41 µM throughout. Moreover, the MIC in assay [1] (setting [3]) was more than 64 µg/mL.
For the compound `CC[C@H]1OC(=O)[C@H](C)[C@@H](O[C@H]2C[C@@](C)(OC)[C@](O)(CNCCS(=O)(=O)c3ccccc3)[C@H](C)O2)[C@H](C)[C@@H](O[C@@H]2O[C@H](C)C[C@H](N(C)C(=O)N(C)c3ccccc3)[C@H]2O)[C@](C)(O)C[C@@H](C)CN[C@H](C)[C@@H](O)[C@]1(C)O` [Example H-43, 1-((2S,3R,4S,6R)-2-(((2R,3S,4R,5R,8R,10R,11R,12S,13S,14R)-2-ethyl-3,4,10-trihydroxy-13-(((2R,4R,5S,6S)-5-hydroxy-4-methoxy-4,6-dimethyl-5-(((2-(phenylsulfonyl)ethyl)amino)methyl)tetrahydro-2H-pyran-2-yl)oxy)-3,5,8,10,12,14-hexamethyl-15-oxo-1-oxa-6-azacyclopentadecan-11-yl)oxy)-3-hydroxy-6-methyltetrahydro-2H-pyran-4-yl)-1,3-dimethyl-3-phenylurea], in the assay with IL-1β, the “IL-1β OS of LPS” value was 16 µM. In addition, the IC50 (in general, the concentration needed to halve the response being measured) is 29 µM in the assay with IL-6 (setting [2]) and 34 µM in the assay on TNF-α (setting [2]). Also, the MIC in assay [1] (setting [3]) was more than 64 µg/mL.
As for `CC[C@H]1OC(=O)[C@H](C)[C@@H](O[C@H]2C[C@@](C)(OC)[C@](O)(CN3CCCCC3)[C@H](C)O2)[C@H](C)[C@@H](O[C@@H]2O[C@H](C)C[C@H](N(C)C(=O)N(C)c3ccccc3)[C@H]2O)[C@](C)(O)C[C@@H](C)CN[C@H](C)[C@@H](O)[C@]1(C)O` [Example J-18, 1-((2S,3R,4S,6R)-2-(((2R,3S,4R,5R,8R,10R,11R,12S,13S,14R)-2-ethyl-3,4,10-trihydroxy-13-(((2R,4R,5S,6S)-5-hydroxy-4-methoxy-4,6-dimethyl-5-(piperidin-1-ylmethyl)tetrahydro-2H-pyran-2-yl)oxy)-3,5,8,10,12,14-hexamethyl-15-oxo-1-oxa-6-azacyclopentadecan-11-yl)oxy)-3-hydroxy-6-methyltetrahydro-2H-pyran-4-yl)-1,3-dimethyl-3-phenylurea], the “IL-1β OS of LPS” value in the assay on IL-1β was more than 250 µM. Further, the values for the IC50 with IL-6 and in the assay on TNF-α were 17 µM and 16 µM, respectively. The MIC in assay [1] (read-out: MIC ≤64 μg/mL for at least one of the bacterial strains (flag * at Ex #)) was less than 64 µg/mL.
For the compound `CC[C@H]1OC(=O)[C@H](C)[C@@H](O[C@H]2C[C@@](C)(OC)[C@](O)(CN3CCC(c4ccccc4)CC3)[C@H](C)O2)[C@H](C)[C@@H](O[C@@H]2O[C@H](C)C[C@H](N(C)C(=O)N(C)c3ccccc3)[C@H]2O)[C@](C)(O)C[C@@H](C)CN[C@H](C)[C@@H](O)[C@]1(C)O` [Example J-20, 1-((2S,3R,4S,6R)-2-(((2R,3S,4R,5R,8R,10R,11R,12S,13S,14R)-2-ethyl-3,4,10-trihydroxy-13-(((2R,4R,5S,6S)-5-hydroxy-4-methoxy-4,6-dimethyl-5-((4-phenylpiperidin-1-yl)methyl)tetrahydro-2H-pyran-2-yl)oxy)-3,5,8,10,12,14-hexamethyl-15-oxo-1-oxa-6-azacyclopentadecan-11-yl)oxy)-3-hydroxy-6-methyltetrahydro-2H-pyran-4-yl)-1,3-dimethyl-3-phenylurea], in the assay on IL-1β, the “IL-1β OS of LPS” value is 3 µM. The results for the IC50 with IL-6 (setting [2]) and with TNF-α (setting [2]) were 9 µM and 7 µM, respectively. The MIC in assay [1] (setting [3]) was more than 64 µg/mL.
With `CC[C@H]1OC(=O)[C@H](C)[C@@H](O[C@H]2C[C@@](C)(OC)[C@](O)(CNCCC(C)C)[C@H](C)O2)[C@H](C)[C@@H](O[C@@H]2O[C@H](C)C[C@H](N(C)C(=O)N(C)c3ccccc3)[C@H]2O)[C@](C)(O)C[C@@H](C)CN[C@H](C)[C@@H](O)[C@]1(C)O` [Example H-29, 1-((2S,3R,4S,6R)-2-(((2R,3S,4R,5R,8R,10R,11R,12S,13S,14R)-2-ethyl-3,4,10-trihydroxy-13-(((2R,4R,5S,6S)-5-hydroxy-5-((isopentylamino)methyl)-4-methoxy-4,6-dimethyltetrahydro-2H-pyran-2-yl)oxy)-3,5,8,10,12,14-hexamethyl-15-oxo-1-oxa-6-azacyclopentadecan-11-yl)oxy)-3-hydroxy-6-methyltetrahydro-2H-pyran-4-yl)-1,3-dimethyl-3-phenylurea], the “IL-1β OS of LPS” value in the assay with IL-1β worked out at 3 µM. Also, the IC50 in the assay on IL-6 (setting [2]) and in the assay with TNF-α (setting [2]) was 50 µM in each case. Moreover, the MIC in assay [1] (setting [3]) is more than 64 µg/mL.
